Laboratory results reported in PubChem BioAssay (NCI).
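A five-concentration, 48-hour dose response in 96-well plates underlies each endpoint, interpolated linearly between surrounding concentrations. GI50 marks 50% less growth. TGI denotes the concentration required for complete inhibition of growth.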

How the values were obtained:
Test in all cases: DTP human tumour cell line panel, 48 h
A498 renal = tested on: A498 renal
HL-60(TB) leukemia = tested on: HL-60(TB) leukemia
TK-10 renal = tested on: TK-10 renal
MCF7 breast = tested on: MCF7 breast
MOLT-4 leukemia = tested on: MOLT-4 leukemia
SR leukemia = tested on: SR leukemia
CCRF-CEM leukemia = tested on: CCRF-CEM leukemia
NCI-H226 lung = tested on: NCI-H226 lung
COLO 205 colon = tested on: COLO 205 colon
SK-MEL-28 melanoma = tested on: SK-MEL-28 melanoma
SN12C renal = tested on: SN12C renal
NCI/ADR-RES ovarian = tested on: NCI/ADR-RES ovarian
PC-3 prostate = tested on: PC-3 prostate
OVCAR-5 ovarian = tested on: OVCAR-5 ovarian
NCI-H23 lung = tested on: NCI-H23 lung
SK-OV-3 ovarian = tested on: SK-OV-3 ovarian
SF-295 CNS = tested on: SF-295 CNS
HOP-92 NSCLC = tested on: HOP-92 NSCLC
UACC-257 melanoma = tested on: UACC-257 melanoma
IGROV1 ovarian = tested on: IGROV1 ovarian
DU-145 prostate = tested on: DU-145 prostate
KM12 colon = tested on: KM12 colon
OVCAR-4 ovarian = tested on: OVCAR-4 ovarian
K-562 leukemia = tested on: K-562 leukemia
LOX IMVI melanoma = tested on: LOX IMVI melanoma
MDA-MB-231 breast = tested on: MDA-MB-231 breast
MALME-3M melanoma = tested on: MALME-3M melanoma
HCC-2998 colon = tested on: HCC-2998 colon
SF-539 CNS = tested on: SF-539 CNS

COc1ccc2nc(NNC(=O)c3cnccn3)c3cccn3c2c1
GI50 (A498 renal): 684 nM
TGI (A498 renal): 9500 nM
GI50 (HL-60(TB) leukemia): 270 nM
GI50 (TK-10 renal): 329 nM
TGI (TK-10 renal): > 100000 nM
GI50 (MCF7 breast): 270 nM
TGI (MCF7 breast): 2770 nM
GI50 (MOLT-4 leukemia): 201 nM
TGI (MOLT-4 leukemia): > 100000 nM
GI50 (SR leukemia): 121 nM
TGI (SR leukemia): > 100000 nM
GI50 (CCRF-CEM leukemia): 91.9 nM
TGI (CCRF-CEM leukemia): > 100000 nM
GI50 (NCI-H226 lung): 428 nM
TGI (NCI-H226 lung): 6820 nM
GI50 (COLO 205 colon): 331 nM
TGI (COLO 205 colon): 8280 nM
GI50 (SK-MEL-28 melanoma): 382 nM
TGI (SK-MEL-28 melanoma): 29800 nM
GI50 (SN12C renal): 426 nM
TGI (SN12C renal): 13900 nM
GI50 (NCI/ADR-RES ovarian): 207 nM
TGI (NCI/ADR-RES ovarian): 2090 nM
GI50 (PC-3 prostate): 227 nM
TGI (PC-3 prostate): > 100000 nM
GI50 (OVCAR-5 ovarian): 704 nM
TGI (OVCAR-5 ovarian): > 100000 nM
GI50 (NCI-H23 lung): 545 nM
TGI (NCI-H23 lung): > 36000 nM
GI50 (SK-OV-3 ovarian): 540 nM
TGI (SK-OV-3 ovarian): 9090 nM
GI50 (SF-295 CNS): 219 nM
TGI (SF-295 CNS): 4350 nM
GI50 (HOP-92 NSCLC): 930 nM
TGI (HOP-92 NSCLC): 9650 nM
GI50 (UACC-257 melanoma): 689 nM
TGI (UACC-257 melanoma): 7620 nM
GI50 (IGROV1 ovarian): 132 nM
TGI (IGROV1 ovarian): 2320 nM
GI50 (DU-145 prostate): 283 nM
TGI (DU-145 prostate): 26700 nM
GI50 (KM12 colon): 321 nM
TGI (KM12 colon): > 21000 nM
GI50 (OVCAR-4 ovarian): 171 nM
TGI (OVCAR-4 ovarian): 5070 nM
GI50 (K-562 leukemia): 351 nM
TGI (K-562 leukemia): > 100000 nM
GI50 (LOX IMVI melanoma): 177 nM
TGI (LOX IMVI melanoma): 1780 nM
GI50 (MDA-MB-231 breast): 833 nM
TGI (MDA-MB-231 breast): 17600 nM
GI50 (MALME-3M melanoma): 639 nM
TGI (MALME-3M melanoma): 15400 nM
GI50 (HCC-2998 colon): 522 nM
TGI (HCC-2998 colon): > 52500 nM
GI50 (SF-539 CNS): 362 nM
TGI (SF-539 CNS): 10600 nM
